How the values were obtained:
Assay type in all cases: biochemical
HDAC1 = molecular target: T1, HDAC1 (Homo sapiens, UniProt Q13547); test: HDAC Inhibition Screening Assay (FLUOR DE LYS Fluorimetric Drug Discovery Kit), HDAC1; settings: for inhibition at 2 µM: 2 μM compound; for inhibition at 10 µM: 10 μM compound; for inhibition at 50 µM: 50 μM compound
T1 construct: purchased Enzo Life Sciences
Protocol: (§1) The HDAC1/HDAC2/HDAC3 in vitro activities are detected by Enzo Life Sciences' HDAC1/HDAC2/HDAC3 Fluorimetric Drug Discovery Kit. The assay is based on the FLUOR DE LYS® Substrate and FLUOR DE LYS® Developer combination. The assay procedure has two steps. First, the FLUOR DE LYS® Substrate, which comprises an acetylated lysine side chain, is incubated with HDAC1/HDAC2/HDAC3, respectively. Deacetylation of the substrate sensitizes the substrate so that, in the second step, treatment with the FLUOR DE LYS® Developer produces a fluorophore. The signals of the test compounds (Compounds 1˜83; at concentrations of 2 μM, 10 μM and 50 μM) in 96-well plates are detected at 360 nm or 485 nm excitation and 460 nm or 530 nm emission with a Molecular Devices SpectraMax i3 Imaging Cytometer. The HDAC1/HDAC2/HDAC3 activities are expressed in percentage of basal control minus baseline control.

HDAC2 = molecular target: T2, HDAC2 (Homo sapiens, UniProt Q92769); test: HDAC Inhibition Screening Assay (FLUOR DE LYS Fluorimetric Drug Discovery Kit), HDAC2; settings: for inhibition at 2 µM: 2 μM compound; for inhibition at 10 µM: 10 μM compound; for inhibition at 50 µM: 50 μM compound
T2 construct: purchased Enzo Life Sciences
Protocol: as §1

HDAC3 = molecular target: T3, HDAC3 (Homo sapiens, UniProt O15379); test: HDAC Inhibition Screening Assay (FLUOR DE LYS Fluorimetric Drug Discovery Kit), HDAC3; settings: for inhibition at 2 µM: 2 μM compound; for inhibition at 10 µM: 10 μM compound; for inhibition at 50 µM: 50 μM compound
T3 construct: purchased Enzo Life Sciences
Protocol: as §1

ATX (autotaxin) = molecular target: T4, ATX (autotaxin) (Homo sapiens, UniProt Q13822); test: Autotaxin Inhibition Screening Assay (choline release from LPC, LPC-CR); settings: for inhibition at 4 µM: 4 μM compound; for inhibition at 20 µM: 20 μM compound; for inhibition at 50 µM: 50 μM compound
T4 construct: purchased Cayman 10803
Protocol: ATX (autotaxin) activity was measured by choline release from LPC in presence or absence of test compounds (Compounds 1˜83; at concentrations of 4 μM, 20 μM and 50 μM). Twenty (20) ng ATX (10803, Cayman, MI, USA) was incubated with 100 μM 14:0 LPC (855575P, Avanti, AL, USA) in a final volume of 100 μL buffer containing 50 mM Tris pH 8.0, 0.01% Triton X-100, 50 mM CaCl2, 1 unit/ml choline oxidase, 2 unit/ml horseradish peroxidase (HRP), 2 mM homovanilic acid (HVA). The relative amount of released choline was measured by HVA fluorescence in a 96-well plate. Fluorescent intensity was determined at λex/λem=320/450 nm every 60 sec for 90 min with a SpectraMax i3 (Molecular Devices, CA, USA). Data analysis was performed using GraphPad Prism (GraphPad, La Jolla CA, USA). Inhibition %=[1−(SlopeTA−SlopeBlank)/(SlopeVehicle−SlopeBlank)]×100% HDAC Inhibition Screening Assay

T2 sequence (Q92769 whole entry): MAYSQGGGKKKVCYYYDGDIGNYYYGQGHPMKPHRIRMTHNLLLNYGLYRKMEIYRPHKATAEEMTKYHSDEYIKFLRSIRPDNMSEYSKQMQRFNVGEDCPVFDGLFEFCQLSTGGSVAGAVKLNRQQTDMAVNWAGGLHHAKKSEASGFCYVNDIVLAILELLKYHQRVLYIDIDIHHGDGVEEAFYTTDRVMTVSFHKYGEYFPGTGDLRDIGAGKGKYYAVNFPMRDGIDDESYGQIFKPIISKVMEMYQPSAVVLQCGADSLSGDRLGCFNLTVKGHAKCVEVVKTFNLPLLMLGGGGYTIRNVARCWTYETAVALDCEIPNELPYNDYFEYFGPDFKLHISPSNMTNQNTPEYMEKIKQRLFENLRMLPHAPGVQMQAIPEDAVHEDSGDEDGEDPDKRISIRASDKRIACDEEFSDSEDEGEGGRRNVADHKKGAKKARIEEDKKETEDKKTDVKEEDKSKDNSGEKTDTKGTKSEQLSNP
T1 sequence (Q13547 whole entry): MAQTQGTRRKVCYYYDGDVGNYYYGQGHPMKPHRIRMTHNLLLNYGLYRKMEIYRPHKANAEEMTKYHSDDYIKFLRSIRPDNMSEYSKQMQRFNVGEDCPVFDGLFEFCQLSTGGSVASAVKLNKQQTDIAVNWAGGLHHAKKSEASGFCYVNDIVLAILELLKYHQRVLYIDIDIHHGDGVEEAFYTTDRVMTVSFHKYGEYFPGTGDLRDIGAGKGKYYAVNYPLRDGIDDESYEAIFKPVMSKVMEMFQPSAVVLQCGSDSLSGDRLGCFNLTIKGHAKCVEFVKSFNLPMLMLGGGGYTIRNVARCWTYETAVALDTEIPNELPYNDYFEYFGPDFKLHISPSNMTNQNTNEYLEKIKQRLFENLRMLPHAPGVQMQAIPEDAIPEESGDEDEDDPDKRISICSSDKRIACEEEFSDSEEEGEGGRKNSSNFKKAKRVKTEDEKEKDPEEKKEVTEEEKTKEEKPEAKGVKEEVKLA
T3 sequence (O15379 whole entry): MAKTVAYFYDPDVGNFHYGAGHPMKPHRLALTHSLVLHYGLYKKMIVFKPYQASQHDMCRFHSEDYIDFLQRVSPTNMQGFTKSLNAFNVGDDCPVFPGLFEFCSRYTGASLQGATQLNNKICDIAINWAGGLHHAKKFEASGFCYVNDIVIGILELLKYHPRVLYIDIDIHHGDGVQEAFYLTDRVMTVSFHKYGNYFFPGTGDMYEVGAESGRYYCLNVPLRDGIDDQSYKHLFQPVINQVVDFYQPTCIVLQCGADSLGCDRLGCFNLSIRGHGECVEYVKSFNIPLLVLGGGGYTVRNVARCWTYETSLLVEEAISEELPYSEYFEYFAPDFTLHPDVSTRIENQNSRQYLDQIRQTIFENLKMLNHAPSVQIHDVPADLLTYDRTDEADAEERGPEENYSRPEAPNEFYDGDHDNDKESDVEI
T3 sequence (O75376 395-489 partner limits assumed): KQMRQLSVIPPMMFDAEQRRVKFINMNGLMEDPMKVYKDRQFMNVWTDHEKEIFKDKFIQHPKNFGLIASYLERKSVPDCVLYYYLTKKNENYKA

Structure (SMILES)	inhibition at 2 µM (HDAC1) [%]	inhibition at 10 µM (HDAC1) [%]	inhibition at 50 µM (HDAC1) [%]	inhibition at 2 µM (HDAC2) [%]	inhibition at 10 µM (HDAC2) [%]	inhibition at 50 µM (HDAC2) [%]	inhibition at 2 µM (HDAC3) [%]	inhibition at 10 µM (HDAC3) [%]	inhibition at 50 µM (HDAC3) [%]	inhibition at 4 µM (ATX (autotaxin)) [%]	inhibition at 20 µM (ATX (autotaxin)) [%]	inhibition at 50 µM (ATX (autotaxin)) [%]
O=C(CCCCCCC(=O)Nc1ccc2c(c1)CCCC2=O)NO [Compound 1, N^1-hydroxy-N^8-(5-oxo-5,6,7,8-tetrahydronaphthalen-2-yl)octanediamide]	> 80	> 80	> 80	> 80	> 80	> 80	> 80	> 80	> 80	< 50	< 50	< 50
O=C(CCCCCCC(=O)Nc1ccc2c(c1)CCCC2O)NO (stereo not drawn) [Compound 2, N^1-hydroxy-N^8-(5-hydroxy-5,6,7,8-tetrahydronaphthalen-2-yl)octanediamide]	> 80	> 80	> 80	> 80	> 80	> 80	> 80	> 80	> 80	< 50	< 50	< 50
O=C(CCCCCCC(=O)Nc1ccc2c(c1)CCC/C2=N\O)NO [Compound 3, (E)-N1-hydroxy-N8-(5-(hydroxyimino)-5,6,7,8-tetrahydronaphthalen-2-yl)octanediamide]	> 80	> 80	> 80	> 80	> 80	> 80	> 80	> 80	> 80	< 50	< 50	< 50
O=C(CCCCCCC(=O)Nc1ccc2c(c1)CC/C(=C\c1cc(C(F)(F)F)cc(C(F)(F)F)c1)C2=O)NO [Compound 4]	50 to 80	> 80	> 80	50 to 80	> 80	> 80	< 50	50 to 80	> 80	> 80	> 80	> 80
Nc1cc(F)ccc1NC(=O)CCCCCCC(=O)Nc1ccc2c(c1)CC/C(=C\c1cc(C(F)(F)F)cc(C(F)(F)F)c1)C2=O [Compound 5, (E)-N1-(2-amino-4-fluorophenyl)-N8-(6-(3,5-bis(trifluoromethyl)benzylidene)-5-oxo-5,6,7,8-tetrahydronaphthalen-2-yl)octanediamide]	< 50	< 50	< 50	< 50	< 50	< 50	< 50	< 50	< 50	50 to 80	50 to 80	50 to 80
Nc1cc(F)ccc1NC(=O)/C=C/c1ccc2c(c1)CC/C(=C\c1cc(C(F)(F)F)cc(C(F)(F)F)c1)C2=O [Compound 6, (E)-N-(2-amino-4-fluorophenyl)-3-(6-((E)-3,5-bis(trifluoromethyl)benzylidene)-5-oxo-5,6,7,8-tetrahydronaphthalen-2-yl)acrylamide]	< 50	< 50	< 50	< 50	< 50	< 50	< 50	< 50	< 50	50 to 80	50 to 80	50 to 80
O=C(/C=C/c1ccc2c(c1)CC/C(=C\c1cc(C(F)(F)F)cc(C(F)(F)F)c1)C2=O)NO [Compound 7, (E)-3-(6-((E)-3,5-bis(trifluoromethyl)benzylidene)-5-oxo-5,6,7,8-tetrahydronaphthalen-2-yl)-N-hydroxyacrylamide]	< 50	< 50	50 to 80	< 50	< 50	50 to 80	< 50	< 50	50 to 80	< 50	50 to 80	50 to 80
O=C(/C=C/c1ccc2c(c1)CC/C(=C\c1cc(C(F)(F)F)cc(C(F)(F)F)c1)C2=O)NCCCCCC(=O)NO [Compound 8, 6-((E)-3-(6-((E)-3,5-bis(trifluoromethyl)benzylidene)-5-oxo-5,6,7,8-tetrahydronaphthalen-2-yl)acrylamido)-N-hydroxyhexanamide]	50 to 80	> 80	> 80	> 80	> 80	> 80	< 50	> 80	> 80	> 80	> 80	> 80
Nc1cc(F)ccc1NC(=O)CCCCCCC(=O)Nc1ccc2c(c1)CCC(Cc1cc(C(F)(F)F)cc(C(F)(F)F)c1)C2=O (stereo not drawn) [Compound 9, N1-(2-amino-4-fluorophenyl)-N8-(6-(3,5-bis(trifluoromethyl)benzyl)-5-oxo-5,6,7,8-tetrahydronaphthalen-2-yl)octanediamide]	< 50	< 50	< 50	< 50	< 50	< 50	< 50	< 50	< 50	< 50	< 50	< 50
O=C(CCCCCCC(=O)Nc1ccc2c(c1)CCC(Cc1cc(C(F)(F)F)cc(C(F)(F)F)c1)C2=O)NO (stereo not drawn) [Compound 10, N1-(6-(3,5-bis(trifluoromethyl)benzyl)-5-oxo-5,6,7,8-tetrahydronaphthalen-2-yl)-N8-hydroxyoctanediamide]	< 50	50 to 80	> 80	< 50	> 80	> 80	< 50	50 to 80	> 80	> 80	> 80	> 80
Nc1cc(F)ccc1NC(=O)CCCCCC(=O)Nc1ccc2c(c1)CC/C(=C\c1cc(C(F)(F)F)cc(C(F)(F)F)c1)C2=O [Compound 11, (E)-N1-(2-amino-4-fluorophenyl)-N7-(6-(3,5-bis(trifluoromethyl)benzylidene)-5-oxo-5,6,7,8-tetrahydronaphthalen-2-yl)heptanediamide]	< 50	< 50	< 50	< 50	< 50	< 50	< 50	< 50	< 50	> 80	> 80	> 80
O=C(CCCCCC(=O)Nc1ccc2c(c1)CC/C(=C\c1cc(C(F)(F)F)cc(C(F)(F)F)c1)C2=O)NO [Compound 12, (E)-N1-(6-(3,5-bis(trifluoromethyl)benzylidene)-5-oxo-5,6,7,8-tetrahydronaphthalen-2-yl)-N7-hydroxyheptanediamide]	< 50	50 to 80	> 80	50 to 80	> 80	> 80	50 to 80	> 80	> 80	> 80	> 80	> 80
Nc1cc(F)ccc1NC(=O)CCCCC(=O)Nc1ccc2c(c1)CC/C(=C\c1cc(C(F)(F)F)cc(C(F)(F)F)c1)C2=O [Compound 13, (E)-N1-(2-amino-4-fluorophenyl)-N6-(6-(3,5-bis(trifluoromethyl)benzylidene)-5-oxo-5,6,7,8-tetrahydronaphthalen-2-yl)adipamide]	< 50	< 50	< 50	< 50	< 50	< 50	< 50	< 50	< 50	50 to 80	50 to 80	50 to 80

Reference: patent publication US12162820B2 (TAIWANJ PHARMACEUTICALS CO., LTD., priority 2019, dated 2024)
